What was measured:
[1] = Vapor-liquid-equilibrium (VLE) test: iodide measured in the condensed vapor phase (suppression of HI volatilization); type: physicochemical
[2] = FTIR P═O stretching frequency in acetonitrile as a gauge of basicity; type: physicochemical; conditions: lower frequency = higher basicity
Experimental: FTIR analyses were carried out on a Nicolet 6700 FTIR spectrometer equipped with a 3 bounce zinc selenide (ZnSe) attenuated total reflectance (ATR) crystal assembly. 0.1 mL aliquots of solution were removed from samples via micro-syringe. The solution was then placed on the crystal and an FTIR spectrum was obtained.

[3] = for solubility, bis(diphenylphosphino) series: acetonitrile or glacial acetic acid (GAA)
[4] = pKb (basicity) of Group 15 oxides
[5] = additive 0.05 molar, 0.1M HI, 1.3M H2O (2 wt %), GAA, approximately 140° C.
[6] = additive 0.1 molar, 0.1M HI, 1.3M H2O (2 wt %), GAA, approximately 140° C.

Structure (SMILES)	HI (ppm in vapor) [1, 5]	HI (ppm in vapor) [1, 6] [ppm]	P═O, cm^−1 [2]	other results
O=P(CCCCCP(=O)(c1ccccc1)c1ccccc1)(c1ccccc1)c1ccccc1 [Bis-DPPPeO2, bis(diphenylphosphino)pentane dioxide]	5,392 ppm	683	1,178.2 cm^−1	
O=P(CP(=O)(c1ccccc1)c1ccccc1)(c1ccccc1)c1ccccc1 [Bis-DPPMeO2, bis(diphenylphosphino)methane dioxide]	7,889 ppm	876	1,197.7 cm^−1	
c1ccc(P(CCCCP(c2ccccc2)c2ccccc2)c2ccccc2)cc1				solubility, bis(diphenylphosphino) series [3]: insoluble
O=P(c1ccccc1)(c1ccccc1)c1ccccc1 [TPPO, triphenylphosphine oxide, reference compound]			1,191.6 cm^−1	
c1ccc(P(CCCCCCP(c2ccccc2)c2ccccc2)c2ccccc2)cc1				solubility, bis(diphenylphosphino) series [3]: insoluble
O=[As](c1ccccc1)(c1ccccc1)c1ccccc1 [Ph3AsO, triphenyl arsine oxide]				HI (ppm in vapor) ([1]; Table 5, additive 0.25 molar, 1:1 molar ratio of additive to HI): 1,132 ppm; effectiveness in suppressing volatilization of HI relative to the CMPO ([1]; equivalent molarity, Table 5 conditions): about 7 times; solubility in GAA upon addition of HI ([3]; HI added): soluble; solubility in GAA ([3]; without added HI): soluble; pKb [4]: 4.15
O=P(CP(=O)(C1CCCCC1)C1CCCCC1)(C1CCCCC1)C1CCCCC1 [Bis-DiCyPMeO2]			1,160.1 cm^−1	
O=P(CCCP(=O)(c1ccccc1)c1ccccc1)(c1ccccc1)c1ccccc1 [Bis-DPPPrO]			1,180.0 cm^−1	
O=P(CCCP(=O)(c1ccccc1)c1ccccc1)(c1ccccc1)c1ccccc1 [Bis-DPPPrO2, bis(diphenylphosphino)propane dioxide]	6,291 ppm	421	1,180.8 cm^−1	

Source: US20240279144A1, “CONTROL OF IODIDES IN ACETIC ACID PRODUCTION” (LyondellBasell Acetyls, LLC, priority 2023, published 2024)
